Literature values as cited in US20240408163A1, “CAPILLARY NUTRITIONAL COMPLEX” (NATURAL FOLIC, S.L., priority 2023, published 2024).

Compound: CC1=C(/C=C/C(C)=C/C=C/C(C)=C/C=C/C=C(C)/C=C/C=C(C)/C=C/C2=C(C)C(=O)[C@@H](O)CC2(C)C)C(C)(C)C[C@H](O)C1=O [Astaxanthin]
- antioxidant power relative to coenzyme Q10 (times more powerful than coenzyme Q10): 800 times
- antioxidant power relative to vitamin C (times more powerful than vitamin C): 6000 times
